Source: patent US7109243B2 (IRM LLC, priority 2003, dated 2006)

How the values were obtained:
Cathepsin S = Cathepsin S (Homo sapiens, UniProt P25774); experiment: Cathepsin S inhibition assay (fluorogenic peptide substrate); assay type: biochemical; conditions: Table II, compounds of Formula I; read-out: Ki Cat. S
Outline: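 Ki values come from nonlinear fitting of inhibited hydrolysis rates, taking free and total inhibitor concentrations as equal. Rates measured as rising fluorescence at 380/450 nm after reaction start with 50 μM final acetyl-HPVK-aminocarbamoylcoumarin.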

Cathepsin K = target: T1, Cathepsin K (Homo sapiens, UniProt P43235); experiment: Cathepsin K inhibition assay (fluorogenic peptide substrate); selectivity ratio vs cathepsin S; assay type: biochemical; conditions: ratio of cathepsin K inhibition constant to cathepsin S inhibition constant; Table II
T1 sequence (P43235 115-329): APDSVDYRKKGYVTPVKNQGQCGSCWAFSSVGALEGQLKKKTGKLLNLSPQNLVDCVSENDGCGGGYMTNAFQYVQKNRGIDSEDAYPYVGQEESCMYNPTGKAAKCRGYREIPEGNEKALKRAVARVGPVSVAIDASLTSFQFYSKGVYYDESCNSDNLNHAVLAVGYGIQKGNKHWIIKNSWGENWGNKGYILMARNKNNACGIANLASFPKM
Outline: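 Inhibition constants for competitive inhibitors come from apparent values fitted to enzyme progress curves. Substrate, acetyl-Lys-His-Pro-Lys-aminocarbamoylcoumarin (40 μM final), starts the reaction; fluorescence rise read at 380 nm excitation, 450 nm emission. Selectivity ratio: other cathepsin constant over cathepsin S constant.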

Cathepsin S, sequence (P25774 115-331, species assumed): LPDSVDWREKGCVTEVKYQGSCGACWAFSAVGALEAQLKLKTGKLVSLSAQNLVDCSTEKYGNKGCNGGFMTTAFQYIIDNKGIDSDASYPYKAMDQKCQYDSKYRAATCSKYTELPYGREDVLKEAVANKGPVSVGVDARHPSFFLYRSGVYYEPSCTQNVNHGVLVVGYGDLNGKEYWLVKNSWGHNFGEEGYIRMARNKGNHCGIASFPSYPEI

SMILES	Ki (Cathepsin S)	Selectivity for Cat. S over Cat. K (Cathepsin K)
CC(=O)N1CCC(C(=O)N[C@@H](CC2CCCCC2)C(=O)NCCNc2ccc(F)cc2)CC1 [Compound 79, 1-Acetyl-piperidine-4-carboxylic acid (S)-{2-cyclohexyl-1-[2-(4-fluoro-phenylamino)-ethylcarbamoyl]-ethyl}-amide]	< 10000 nM	+ (+, >10)
COc1cc(OC)nc(-c2ccc(C(=O)N[C@@H](CC3CCCCC3)C(=O)NCCNc3ccc(OC(F)(F)F)cc3)cc2)n1 [Compound 80, N-(S)-{2-cyclohexyl-1-[2-(4-trifluoromethoxy-phenylamino)-ethylcarbamoyl]-ethyl}-4-(4,6-dimethoxy-pyrimidin-2-yl)-benzamide]	< 1000 nM	+++ (+++, >1000)
O=C(N[C@@H](CC1CCCCC1)C(=O)NCCNc1ccc(OC(F)(F)F)cc1)C1CCN(c2ncc(Br)cn2)CC1 [Compound 81, 1-(5-Bromo-pyrimidin-2-yl)-piperidine-4-carboxylic acid (S)-{2-cyclohexyl-1-[2-(4-trifluoromethoxy-phenylamino)-ethylcarbamoyl]-ethyl}-amide]	< 1000 nM	++ (++, >100)
COc1ccc(NCCNC(=O)[C@H](Cc2ccccc2)NC(=O)CC2C=CCC2)cc1 (stereo partly drawn) [Compound 82, (S)-2-(2-Cyclopent-2-enyl-acetylamino)-N-[2-(4-methoxy-phenylamino)-ethyl]-3-phenyl-propionamide]	< 1000 nM	+ (+, >10)
COc1ccc(NCCNC(=O)[C@H](Cc2ccccc2)NC(=O)Nc2ccc(Cl)cc2)cc1 [Compound 88, (S)-2-[3-(4-Chloro-phenyl)-ureido]-N-[2-(4-methoxy-phenylamino)-ethyl]-3-phenyl-propionamide]	< 1000 nM	+ (+, >10)
COc1ccc(NCCNC(=O)[C@H](Cc2ccccc2)NC(=O)Nc2ccc(Oc3ccccc3)cc2)cc1 [Compound 89, (S)-N-[2-(4-Methoxy-phenylamino)-ethyl]-2-[3-(4-phenoxy-phenyl)-ureido]-3-phenyl-propionamide]	< 1000 nM	+ (+, >10)
COc1ccc(NCCNC(=O)[C@H](Cc2ccccc2)NC(=O)NCCc2ccccc2)cc1 [Compound 90, (S)-N-[2-(4-Methoxy-phenylamino)-ethyl]-2-(3-phenethyl-ureido)-3-phenyl-propionamide]	< 1000 nM	+ (+, >10)
COc1ccc(NCCNC(=O)[C@H](Cc2ccccc2)NC(=O)NCc2ccc(F)cc2)cc1 [Compound 91, (S)-2-[3-(4-Fluoro-benzyl)-ureido]-N-[2-(4-methoxy-phenylamino)-ethyl]-3-phenyl-propionamide]	< 10000 nM	+ (+, >10)
O=C(N[C@@H](CC1CCCCC1)C(=O)NCCNc1ccc(OC(F)(F)F)cc1)C1CCCN(c2ncc(Br)cn2)C1 (stereo partly drawn) [Compound 93, 1-(5-Bromo-pyrimidin-2-yl)-piperidine-3-carboxylic acid (S)-{2-cyclohexyl-1-[2-(4-trifluoromethoxy-phenylamino)-ethylcarbamoyl]-ethyl}-amide]	< 1000 nM	+++ (+++, >1000)
COc1ccc(NCCNC(=O)[C@H](Cc2ccccc2)NC(=O)Nc2ccc3c(c2)OCO3)cc1 [Compound 94, (S)-2-(3-Benzo[1,3]dioxol-5-yl-ureido)-N-[2-(4-methoxy-phenylamino)-ethyl]-3-phenyl-propionamide]	< 10000 nM	+ (+, >10)
COc1ccc(NCCNC(=O)[C@H](Cc2ccccc2)NC(=O)NCc2cccc(F)c2)cc1 [Compound 96, (S)-2-[3-(3-Fluoro-benzyl)-ureido]-N-[2-(4-methoxy-phenylamino)-ethyl]-3-phenyl-propionamide]	< 10000 nM	+ (+, >10)
COc1ccc(NCCNC(=O)[C@H](Cc2ccccc2)NC(=O)Nc2ccccc2C)cc1 [Compound 97, (S)-N-[2-(4-Methoxy-phenylamino)-ethyl]-3-phenyl-2-(3-o-tolyl-ureido)-propionamide]	< 1000 nM	+ (+, >10)
COc1ccc(NCCNC(=O)[C@H](Cc2ccc(Oc3ccc(Cl)c(Cl)c3)cc2)NC(=O)c2cccc(C)c2)cc1 [Compound 98, (S)-N-{2-[4-(3,4-Dichloro-phenoxy)-phenyl]-1-[2-(4-methoxy-phenylamino)-ethylcarbamoyl]-ethyl}-3-methyl-benzamide]	< 1000 nM	++ (++, >100)
O=C(Cc1ccc(F)cc1F)N[C@@H](CC1CCCCC1)C(=O)NCCNc1ccc(F)cc1 [Compound 100, 3-Cyclohexyl-2-(S)-[2-(2,4-difluoro-phenyl)-acetylamino]-N-[2-(4-fluoro-phenylamino)-ethyl]-propionamide]	< 100 nM	+++ (+++, >1000)

Continued, values first:

Ki (Cathepsin S)	Selectivity for Cat. S over Cat. K (Cathepsin K)	SMILES
< 100 nM	++ (++, >100)	COc1cc(OC)nc(Oc2cccc(C(=O)N[C@@H](CC3CCCCC3)C(=O)NCCNc3ccc(OC(F)(F)F)cc3)c2)n1 [Compound 73, N-(S)-{2-cyclohexyl-1-[2-(4-trifluoromethoxy-phenylamino)-ethylcarbamoyl]-ethyl}-3-(4,6-dimethoxy-pyrimidin-2-yloxy)-benzamide]
< 100 nM	+++ (+++, >1000)	COc1cccc(-c2cccc(C(=O)N[C@@H](CC3CCCCC3)C(=O)NCCNc3ccc(OC(F)(F)F)cc3)c2)c1 [Compound 74, 3′-Methoxy-biphenyl-3-carboxylic acid (S)-{2-cyclohexyl-1-[2-(4-trifluoromethoxy-phenylamino)-ethylcarbamoyl]-ethyl}-amide]
< 100 nM	+++ (+++, >1000)	CC[C@@H](C(=O)N[C@@H](CCC1CCCCC1)C(=O)NCCNc1ccc(OC)cc1)c1ccccc1 [Compound 75, N-{3-Cyclohexyl-1-(S)-[2-(4-methoxy-phenylamino)-ethylcarbamoyl]-propyl}-2-(R)-phenyl-butyramide]
< 100 nM	+++ (+++, >1000)	O=C(Cc1cccs1)N[C@@H](CC1CCCCC1)C(=O)NCCNc1ccc(F)cc1 [Compound 76, 3-Cyclohexyl-N-[2-(4-fluoro-phenylamino)-ethyl]-2-(S)-(2-thiophen-2-yl-acetylamino)-propionamide]
< 100 nM	++ (++, >100)	O=C(Cc1ccsc1)N[C@@H](CC1CCCCC1)C(=O)NCCNc1ccc(F)cc1 [Compound 77, 3-Cyclohexyl-N-[2-(4-fluoro-phenylamino)-ethyl]-2-(S)-(2-thiophen-3-yl-acetylamino)-propionamide]
< 100 nM	+ (+, >10)	COc1ccc(NCCNC(=O)[C@H](Cc2ccccc2)NC(=O)c2cccc(Br)c2)cc1 [Compound 78, (S)-3-Bromo-N-{1-[2-(4-methoxy-phenylamino)-ethylcarbamoyl]-2-phenyl-ethyl}-benzamide]
< 100 nM	++ (++, >100)	O=C(Cc1c[nH]c2ccccc12)NC(CC1CCCCC1)C(=O)NCCNc1ccc(F)cc1 (stereo not drawn) [Compound 83, 3-Cyclohexyl-N-[2-(4-fluoro-phenylamino)-ethyl]-2-(2-1H-indol-3-yl-acetylamino)-propionamide]
< 100 nM	++ (++, >100)	CS(=O)(=O)Nc1cccc(C(=O)N[C@@H](CC2CCCCC2)C(=O)NCCNc2ccc(F)cc2)c1 [Compound 84, N-(S)-{2-cyclohexyl-1-[2-(4-fluoro-phenylamino)-ethylcarbamoyl]-ethyl}-3-methanesulfonylamino-benzamide]
< 100 nM	++ (++, >100)	O=C(N[C@@H](CC1CCCCC1)C(=O)NCCNc1ccc(F)cc1)c1ccc(-c2cccc(C(F)(F)F)c2)o1 [Compound 85, 5-(3-Trifluoromethyl-phenyl)-furan-2-carboxylic acid (S)-{2-cyclohexyl-1-[2-(4-fluoro-phenylamino)-ethylcarbamoyl]-ethyl}-amide]
< 100 nM	++ (++, >100)	O=C(Cc1ccc(OC(F)(F)F)cc1)N[C@@H](CC1CCCCC1)C(=O)NCCNc1ccc(F)cc1 [Compound 87, 3-Cyclohexyl-N-(S)-[2-(4-fluoro-phenylamino)-ethyl]-2-[2-(4-trifluoromethoxy-phenyl)-acetylamino]-propionamide]
< 100 nM	+ (+, >10)	Cc1cc(C)nc(Nc2ccc(C(=O)N[C@@H](CC3CCCCC3)C(=O)NCCNc3ccc(OC(F)(F)F)cc3)cc2)n1 [Compound 92, N-(S)-{2-cyclohexyl-1-[2-(4-trifluoromethoxy-phenylamino)-ethylcarbamoyl]-ethyl}-4-(4,6-dimethyl-pyrimidin-2-ylamino)-benzamide]
< 100 nM	++ (++, >100)	O=C(Cc1cc(F)ccc1F)N[C@@H](CC1CCCCC1)C(=O)NCCNc1ccc(F)cc1 [Compound 95, 3-Cyclohexyl-2-(S)-[2-(2,5-difluorophenyl)-acetylamino]-N-[2-(4-fluoro-phenylamino)-ethyl]-propionamide]
< 100 nM	++ (++, >100)	O=C(Cc1ccc(F)c(F)c1)N[C@@H](CC1CCCCC1)C(=O)NCCNc1ccc(F)cc1 [Compound 99, 3-Cyclohexyl-2-(S)-[2-(3,4-difluoro-phenyl)-acetylamino]-N-[2-(4-fluoro-phenylamino)-ethyl]-propionamide]
